From the supplement of paper PMC6045584
± gives the standard deviation of the averaged measurements.

Key:
FLUOROURACIL = compound: O=c1[nH]cc(F)c(=O)[nH]1 [FLUOROURACIL]; assay: surviving fraction relative to DMSO-only wells; higher = less growth inhibition; settings: exposure time: 5 days
Summary of the method: (§1)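 At 250–500 cells per well in 384-well plates, log-phase tumour cell lines were seeded and, 24 hours on, exposed continuously for five days to inhibitors at 0.5, 1, 5, 10, 50, 100, 500 and 1000 nM. Viability readout was CellTiter-Glo luminescence, reported as surviving fraction normalised to the median of DMSO-only wells.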

SALINOMYCIN = compound: CC[C@@H](C(=O)[C@@H](C)[C@@H](O)[C@H](C)[C@@H]1O[C@@H]([C@@H](CC)C(=O)O)CC[C@@H]1C)[C@H]1O[C@]2(C=C[C@@H](O)[C@]3(CC[C@@](C)([C@H]4CC[C@](O)(CC)[C@H](C)O4)O3)O2)[C@H](C)C[C@@H]1C [SALINOMYCIN]; assay: as above; settings: exposure time: 5 days
Summary of the method: as §1

Row | Test System | surviving fraction (FLUOROURACIL; 0.5 nM) | surviving fraction (FLUOROURACIL; 1 nM) | surviving fraction (FLUOROURACIL; 5 nM) | surviving fraction (FLUOROURACIL; 10 nM) | surviving fraction (FLUOROURACIL; 50 nM) | surviving fraction (FLUOROURACIL; 100 nM) | surviving fraction (FLUOROURACIL; 500 nM) | surviving fraction (FLUOROURACIL; 1000 nM) | surviving fraction (SALINOMYCIN; 0.5 nM) | surviving fraction (SALINOMYCIN; 1 nM) | surviving fraction (SALINOMYCIN; 5 nM) | surviving fraction (SALINOMYCIN; 10 nM) | surviving fraction (SALINOMYCIN; 50 nM) | surviving fraction (SALINOMYCIN; 100 nM) | surviving fraction (SALINOMYCIN; 500 nM) | surviving fraction (SALINOMYCIN; 1000 nM)
1 | NY BONE | 0.98 ± 0.029 | 0.923 ± 0.032 | 1.03 ± 0.034 | 1.01 ± 0.028 | 1.07 ± 0.02 | 0.993 ± 0.018 | 0.934 ± 0.025 | 0.821 ± 0.014 | 0.929 ± 0.024 | 0.9297 ± 0.0087 | 0.965 ± 0.018 | 0.928 ± 0.021 | 0.851 ± 0.028 | 0.654 ± 0.0095 | 0.241 ± 0.009 | 0.136 ± 0.0072
2 | OS25HAL BONE | 1 ± 0.062 | 1.01 ± 0.056 | 0.985 ± 0.019 | 0.977 ± 0.014 | 1.05 ± 0.082 | 1.15 ± 0.014 | 0.939 ± 0.032 | 0.808 ± 0.032 | 0.952 ± 0.016 | 0.943 ± 0.012 | 0.964 ± 0.02 | 0.932 ± 0.02 | 0.979 ± 0.031 | 0.792 ± 0.017 | 0.122 ± 0.014 | 0.0527 ± 0.0015
3 | OSHN BONE | 1.01 ± 0.014 | 0.972 ± 0.029 | 1.061 ± 0.007 | 1.001 ± 0.0042 | 1.007 ± 0.0011 | 0.9777 ± 0.0071 | 0.989 ± 0.014 | 0.875 ± 0.029 | 1.02 ± 0.019 | 1.01 ± 0.011 | 1.01 ± 0.016 | 1.02 ± 0.02 | 1.01 ± 0.018 | 0.966 ± 0.013 | 0.247 ± 0.005 | 0.115 ± 0.0046
4 | PCI30 HEADNECK | 0.934 ± 0.056 | 1.06 ± 0.029 | 1.08 ± 0.058 | 1.1 ± 0.058 | 0.97 ± 0.067 | 0.981 ± 0.082 | 0.959 ± 0.06 | 0.931 ± 0.034 | 0.829 ± 0.026 | 0.895 ± 0.025 | 1.01 ± 0.07 | 0.945 ± 0.03 | 0.813 ± 0.013 | 0.64 ± 0.064 | 0.202 ± 0.005 | 0.145 ± 0.0085
5 | RDES SOFT TISSUE | 1.09 ± 0.053 | 0.968 ± 0.032 | 1.06 ± 0.047 | 0.912 ± 0.048 | 0.788 ± 0.19 | 0.632 ± 0.01 | 1.3 ± 0.11 | 1.51 ± 0.22 | 1.12 ± 0.12 | 1.21 ± 0.03 | 1.17 ± 0.2 | 1.12 ± 0.13 | 0.438 ± 0.22 | 0.0573 ± 0.0031 | 0.399 ± 0.021 | 0.218 ± 0.014
6 | S68 BREAST | 1.06 ± 0.15 | 1.14 ± 0.31 | 1.06 ± 0.29 | 1.23 ± 0.21 | 0.87 ± 0.13 | 0.749 ± 0.034 | 0.656 ± 0.16 | 0.465 ± 0.061 | 0.923 ± 0.097 | 0.998 ± 0.14 | 1.37 ± 0.22 | 1.04 ± 0.29 | 0.934 ± 0.22 | 0.731 ± 0.079 | 0.337 ± 0.099 | 0.209 ± 0.03
7 | SAOS2 BONE | 1.04 ± 0.073 | 1.05 ± 0.037 | 1.11 ± 0.046 | 1.09 ± 0.02 | 0.826 ± 0.096 | 0.8 ± 0.17 | 0.758 ± 0.11 | 0.598 ± 0.2 | 0.98 ± 0.038 | 0.902 ± 0.077 | 0.946 ± 0.073 | 0.8803 ± 0.0075 | 1.06 ± 0.097 | 1.11 ± 0.05 | 0.763 ± 0.016 | 0.488 ± 0.018
